We go through four compounds from patent EP1948196B1, “USE OF TETRAORGANOSILICON COMPOUNDS” (Salama, Zoser B., priority 2005, dated 2007).

A word on the IC50: it is the concentration that gives 50% inhibition.

≈ marks a conversion by molar mass, not a printed value. Where two headings read alike, the source gives them in different places. Numbered stars: 1 amine (or outer) side, 2 acyl side, 3 side chain; on linkers, the order of the positions; unused ones are H or OH. Bridge positions count the residues as written; N and C are the ends. Peptide text beside a SMILES is read from it. I, II: the chains in the order shown. X2 = c1ccc([Si](O[*:1])(O[*:2])c2ccccc2)cc1

One series has as its system Lymphome. The experiment in a line: Effect on lymphomas.
In a further series the test system is Hepatitis-Viren. Briefly: Antiviral effect. As to conditions: in particular as vesicles holding antisense constructs.
The test system of series [1] is BxPC3 (pankreatisches Adenokarzinom). Briefly: MTT test, triplicate, two-fold dilutions. The series is classed as cell-based. As to conditions: Homo sapiens. The procedure: (§1) Die Silan wurden in Ethanol aufgelöst und in Zellkulturmedien in Konzentrationen von bis zu 500 µg/ml resuspendiert. Es wurden MTT Tests in dreifacher Ausführung durchgeführt, für welche doppelte Lösungen (7 Schritte) und colo205 (Kofon-Karzinom), BxPC3 (pankreatisches Adenokarzinom) sowie T47D (Brustkrebs) benutzt wurden.
(In general: Formazan colour is commonly taken as a measure of viable cells.)

The next series has as its system T47D (Brustkrebs). The experiment in a line: MTT test, triplicate, two-fold dilutions. The series is classed as cell-based. As to conditions: Homo sapiens, T47D, read-out: IC50 T47D. How it is done:
as §1

A further series has as its system colo205 (Kofon-Karzinom). The experiment in a line: MTT test, triplicate, two-fold dilutions. The series is classed as cell-based. The conditions noted are these: Homo sapiens. The procedure:
as §1

The test system of the next series is A431 Epidermalkarzinom. Briefly: MTT assay / EZ4U test, 4 days. The conditions noted are these: Homo sapiens. The series is classed as cell-based. How it is done: (§2) Die Silane 1, 5, 9, 10, 11, 13, 15, 16 wurden in Ethanol gelöst und in MTT Assays in einer anfänglichen Konzentration von 200 µg/ml (5 Lösungsschritte 200 - 12.5 µg/ml) verwendet. Die Platten wurde für eine Dauer.von 4 Tagen inkubiert und die Entwicklungsfähigkeit mithilfe des EZ4U Test bestimmt. Die IC50 Werte wurden ausgehend von Dosierungs-Reaktions-Linien berechnet Zelllinien: Colo 205 and HT29 - Kolonkarzinom; BxPC3 and MIAPaCa2 - Pankreaskrebs; CRO2B - karzinoid, A431 Epidermalkarzinom; normale Zellen: WI38 - humane embryonale Fibroblasten; NIH3T3 - mausartige Fibroblasten; IEC6 - mausartige Enterozyten.

For the next series, the system named is BxPC3 - Pankreaskrebs. The experiment in a line: MTT assay / EZ4U test, 4 days. The series is classed as cell-based. The conditions noted are these: Homo sapiens. The procedure:
as §2

In a further series the test system is CRO2B - karzinoid. Briefly: MTT assay / EZ4U test, 4 days. The series is classed as cell-based. As to conditions: read-out: IC50 CR02B. The procedure: as §2
The subject of the next series is Colo 205 - Kolonkarzinom. The experiment in a line: MTT assay / EZ4U test, 4 days. As to conditions: Homo sapiens. The series is classed as cell-based. How it is done:
as §2

Another series concerns HT29 - Kolonkarzinom. Briefly: MTT assay / EZ4U test, 4 days. Format: cell-based. As to conditions: Homo sapiens. The procedure: as §2
In series [2] the test system is IEC6 - mausartige Enterozyten. Briefly: MTT assay / EZ4U test, 4 days. The conditions noted are these: Rattus norvegicus. The series is classed as cell-based. The procedure:
as §2

A further series relates to MIAPaCa2 - Pankreaskrebs. Briefly: MTT assay / EZ4U test, 4 days. The series is classed as cell-based. The conditions noted are these: Homo sapiens. The procedure:
as §2

For series [3], the system named is NIH3T3 - mausartige Fibroblasten. Briefly: MTT assay / EZ4U test, 4 days. Format: cell-based. The conditions noted are these: Mus musculus. How it is done: as §2
Series [4] has as its system WI38 - humane embryonale Fibroblasten. Briefly: MTT assay / EZ4U test, 4 days. The series is classed as cell-based. The conditions noted are these: Homo sapiens. How it is done:
as §2

Another series concerns Krebszellen. Briefly: Mean IC50 over all cancer cell lines. As to conditions: read-out: IC50 Krebszellen (Durchschnitt ± SD). Format: cell-based. The procedure: as §2
(§3) Mittelwerte-IC50 für alle Krebs- oder normalen Zelllinien: […]

In the next series the test system is Normale Zellen. Briefly: Mean IC50 over all normal cell lines. Format: cell-based. As to conditions: read-out: IC50 Normale Zellen (Durchschnitt ± SD). The procedure: as §2, §3
The test system of a further series is Colo205 Kolonkarzinom. The experiment in a line: subG1 apoptotic fraction, propidium iodide, flow cytometry. The series is classed as cell-based. As to conditions: 50 µg/ml, 4 Tage. How it is done: (§4) Die Zellen (IEC6 mausartige Enterozyten; Panc1 Pankreaskrebszellen; Colo205 Kolonkarzinom) wurden mit 50 µg/ml Silanen inkubiert und nach 4-tägiger Aussetzung auf DNA eingefärbt (Propidiumiodid). Die SubG1 Zellteilung wurde mittels Durchflusscytometrie bestimmt.
A general note: Flow cytometry measures light scatter and fluorescence of single cells or particles in a stream.

For series [5], the system named is IEC6 mausartige Enterozyten. The description is as above. Format: cell-based. As to conditions: 50 µg/ml, 4 Tage. How it is done: as §4
The test system of series [6] is Panc1 Pankreaskrebszellen. The description is as above. The series is classed as cell-based. The conditions noted are these: 50 µg/ml, 4 Tage. The procedure: as §4
Another series deals with Osteosarkome. The experiment in a line: Effect on osteosarcomas.
The test system of the next series is Rhino-Viren. Briefly: Antiviral effect. As to conditions: in particular as vesicles holding antisense constructs.
Series [7] deals with Kälber-Aortenendothelzellinie BKEz-7. Briefly: tissue or blood. Format: cell-based. The source says: Prüfung auf zytotoxisches Potential an Kälber-Aortenendothelzellinie BKEz-7
Als Marker für eine zytotoxische Wirkung wird bei Zellen der charakterisierten Kälber-Aortenendothelzellinie BKEz-7 die Hemmkonzentration ermittelt, bei der eine 50%-ige Hemmung der Zellproliferation erfolgt (im Vergleich zu Kontrollkulturen ohne Zusatz eines Zellinhibitors). Die resultierende Reduzierung der Zellzahl um 50% wird als IC 50 ausgedrückt. Die getesteten Silanverbindungen wurden als Suspensionen auf die Kulturen gegeben und 48 Stunden bei 37°C inkubiert. Zusätzlich erfolgten morphologische Kontrollen und Vitalitätsbestimmungen mittels dem Neutralrot-Test. Mit Ausnahme des Di(dodecanoyloxy)dimethylsilans standen alle Ergebnisse der morphologischen Untersuchungen in guter Übereinstimmung. […]

Another series concerns Maus. Briefly: Pharmacological observation in the mouse (central, vegetative and toxic effects, acute toxicity). The series is classed as in vivo. An excerpt:
Pharmakologische Untersuchungen an der Maus
Die Verbindungen wurden an der Maus auf zentrale, vegetative und toxische Effekte geprüft. Durch systemische Einzelbeobachtungen sind neben der akuten Toxizität (orienberende letale Dosis, oLD) zentrale und vegetative Wirkungen der Testsubstanzen, insbesondere Effekte auf die Motorik und das Reaktionsvermögen, die Haut- und Rektaltemperatur sowie auf die Pupillenmotorik erfasst worden. Die getesteten Dosierungen betrugen 5 •10^-4, 1 • 10^-3 und 5 • 10^-3 mol/kg Körpergewicht Letale Wirkungen konnten bei keiner der Verbindungen beobachtet werden. Die oLD lag für Di(tetradecanoyloxy)dimethylsilan und Di(octadecanoyloxy)dimethylsilan unter 1 • 10^-3 mol/kg Körpergewicht für alle übrigen Verbindungen unter 5 • 10^-3 mollkg Körpergewicht.

In a further series the test system is Basalzellkarzinome. Briefly: Effect on basal cell carcinomas.
[8] abbreviates: COLO 205, read-out: IC50 Colo205.

With `C[C@H](N)C(=O)N[C@@H](C)C(=O)N[C@@H](C)C(=O)N[C@@H](C)C(=O)N[C@@H](C)C(=O)N[C@@H](C)C(=O)N[C@@H](C)C(=O)N[C@@H](C)C(=O)O[Si](OC(=O)[C@H](C)NC(=O)[C@H](C)NC(=O)[C@H](C)NC(=O)[C@H](C)NC(=O)[C@H](C)NC(=O)[C@H](C)NC(=O)[C@H](C)NC(=O)[C@H](C)N)(c1ccccc1)c1ccccc1` [Diphenyl bis(octaalanyl)silylester] (I: H-AAAAAAAA / II: H-AAAAAAAA; linker I:C-II:C via X2), in the series on Lymphome, the “Wirkung auf Lymphome” value is “zeigen eine Wirkung”. Besides, the “Wirkung gegen Hepatitis-Viren” value in the series with Hepatitis-Viren is “zeigen eine Wirkung”.

Regarding Diphenyl bis(hexaalanyl)silylester, the “Wirkung auf Lymphome” value with Lymphome is “zeigen eine Wirkung”. Besides, the “Wirkung gegen Hepatitis-Viren” value in the series on Hepatitis-Viren is listed as “zeigen eine Wirkung”.

For `CCCCCCCCCCCCCCC(=O)O[Si](OC(=O)CCCCCCCCCCCCCC)(c1ccccc1)c1ccccc1` [Si5, Di (pentadecanoyloxy) diphenylsilan], the IC50 is 60 µg/mL (≈ 90.2 µM) in [1] (BXPC-3, read-out: IC50 BxPC3); 20 µg/mL (≈ 30.1 µM) in the series with T47D (Brustkrebs); 70 µg/mL (≈ 105 µM) in the series with colo205 (Kofon-Karzinom) (setting [8]); 36.3 µg/mL (≈ 54.6 µM) in the series on A431 Epidermalkarzinom (A-431, read-out: IC50 A431); 25 µg/mL (≈ 37.6 µM) with BxPC3 - Pankreaskrebs (BXPC-3, read-out: IC50 BxPC3); 35 µg/mL (≈ 52.6 µM) in the series on CRO2B - karzinoid. The IC50 in the series with Colo 205 - Kolonkarzinom (setting [8]) is 43.8 µg/mL (≈ 65.9 µM); in the series with HT29 - Kolonkarzinom (HT-29, read-out: IC50 HT29), 40 µg/mL (≈ 60.1 µM); in series [2] (IEC-6, read-out: IC50 IEC6), 32.5 µg/mL (≈ 48.9 µM); with MIAPaCa2 - Pankreaskrebs (MIA PaCa-2, read-out: IC50 MlAPaCa2) it was 38.5 µg/mL (≈ 57.9 µM); in [3] (NIH3T3, read-out: IC50 NIH3T3), 55 µg/mL (≈ 82.7 µM); in [4] (WI-38, read-out: IC50 WI38) it was 36.5 µg/mL (≈ 54.9 µM). Besides, the IC50 in the series on Krebszellen worked out at 34 µg/mL (≈ 51.1 µM); in the series on Normale Zellen, 41.3 µg/mL (≈ 62.1 µM). In addition, the “subG1 apoptotische Zellteilung Colo205” value in the series on Colo205 Kolonkarzinom is reported as 3,4 ± 0,28. In series [5], the “subG1 apoptotische Zellteilung IEC6” value is on record as 6,35 ± 0,63. Moreover, the “subG1 apoptotische Zellteilung Panc1” value in series [6] is 52,8 ± 3,4. Further, in the series on Osteosarkome, the “Wirkung auf Osteosarkome” value is “zeigen eine Wirkung”. Moreover, the “Wirkung gegen Rhino-Viren” value in the series with Rhino-Viren is recorded as “zeigen eine Wirkung”.

As to `CCCCCCCCCCCCCC(=O)O[Si](OC(=O)CCCCCCCCCCCCC)(c1ccccc1)c1ccccc1` [Si15, Di (tetradecanoyloxy) diphenylsilan], the “Bedenkliche Toxizität” value in series [7] was “-”. Further, the half-maximal inhibitory concentration (IC50) turned out to be 46 µM in series [7] (suspensions, 48 Stunden bei 37°C); 15 µg/mL (≈ 23.5 µM) in [1] (BXPC-3, up to 500 µg/ml, read-out: IC50 BxPC3); 15 µg/mL (≈ 23.5 µM) with T47D (Brustkrebs) (up to 500 µg/ml); 62 µg/mL (≈ 97.3 µM) with colo205 (Kofon-Karzinom) (COLO 205, up to 500 µg/ml, read-out: IC50 Colo205); 34.5 µg/mL (≈ 54.2 µM) with A431 Epidermalkarzinom (A-431, 200 - 12.5 µg/ml, 4 Tage, read-out: IC50 A431); 33.8 µg/mL (≈ 53.1 µM) with BxPC3 - Pankreaskrebs (BXPC-3, 200 - 12.5 µg/ml, 4 Tage, read-out: IC50 BxPC3). Further, the 50% inhibitory concentration (IC50) in the series on CRO2B - karzinoid (200 - 12.5 µg/ml, 4 Tage) came to 12.5 µg/mL (≈ 19.6 µM); in the series on Colo 205 - Kolonkarzinom (COLO 205, 200 - 12.5 µg/ml, 4 Tage, read-out: IC50 Colo205) it was 30 µg/mL (≈ 47.1 µM); in the series with HT29 - Kolonkarzinom (HT-29, 200 - 12.5 µg/ml, 4 Tage, read-out: IC50 HT29), 39.4 µg/mL (≈ 61.8 µM); in series [2] (IEC-6, 200 - 12.5 µg/ml, 4 Tage, read-out: IC50 IEC6), 19.1 µg/mL (≈ 30 µM); in the series with MIAPaCa2 - Pankreaskrebs (MIA PaCa-2, 200 - 12.5 µg/ml, 4 Tage, read-out: IC50 MlAPaCa2), 37 µg/mL (≈ 58.1 µM); in series [3] (NIH3T3, 200 - 12.5 µg/ml, 4 Tage, read-out: IC50 NIH3T3), 29.4 µg/mL (≈ 46.2 µM). In addition, the half-maximal inhibitory concentration (IC50) in series [4] (WI-38, 200 - 12.5 µg/ml, 4 Tage, read-out: IC50 WI38) was 35 µg/mL (≈ 54.9 µM); in the series with Krebszellen (mean over cancer cell lines), 30 µg/mL (≈ 47.1 µM); in the series on Normale Zellen (mean over normal cell lines), 27.8 µg/mL (≈ 43.6 µM). Further, the “zentrale, vegetative und toxische Effekte (Verhaltensänderungen)” value in the series on Maus (1•10^-3 mol/kg) is “Ataxie, Hyper-aktivität”; in the series with Maus (5•10^-3 mol/kg), “schwache Ataxie, Piloerektion”; in the series on Maus (5•10^-4 mol/kg), “keine Verhaltensänderungen”. Also, in the series with Colo205 Kolonkarzinom, the “subG1 apoptotische Zellteilung Colo205” value is 37,6 ± 0,21. For the same compound, the “subG1 apoptotische Zellteilung IEC6” value in [5] is 2,9 ± 0,42. Further, the “subG1 apoptotische Zellteilung Panc1” value in [6] is recorded as 48,6 ± 0,6. The “Wirkung auf Basalzellkarzinome” value with Basalzellkarzinome was “zeigen eine Wirkung”.
